Experimental data from US20140005163A1 (NOVARTIS AG, priority 2010, published 2014).

Columns and labels:
PI3K alpha = biological target: T1, PI3K alpha (Homo sapiens, UniProt P42336); assay: PI3K alpha kinase assay (Kinase-Glo luminescence); assay type: biochemical
T1 construct: p85(iSH2) fusion partner (see partner chain) (N); His tag (C); made in house; host or cells: baculovirus; Tn5 (Trichoplusia ni) or TiniPro insect cells
Experimental: (§1) In a more preferred assay, the kinase reaction is performed in a final volume of 10 μL per well of a low volume non binding CORNING, 384 well black plate (Cat. No. #3676). The final concentrations of ATP and phosphatidyl inositol (PI) in the assay are 1 μM and 10 μg/mL respectively. The reaction is started by the addition of ATP.
(§2) The components of the assay are added per well as follows:
(§3) […] in 90% DMSO per well, in columns 1-20, 8 concentrations (1/3 and 1/3.33 serial dilution step) in single. • Low control: […] of 90% DMSO in half the wells of columns 23-24 (0.45% in final). • High control: […] of reference compound (e.g. compound of Example 7 in WO 2006/122806) in the other half of columns 23-24 (2.5 μM in final). • Standard: […] of reference compound as just mentioned diluted as the test compounds in columns 21-22 • 20 mL ‘buffer’ are prepared per assay: • 200 μL of 1M TRIS HCl pH7.5 (10 mM in final) • 60 μL of 1M MgCl2 (3 mM in final) • 500 μL of 2M NaCl (50 mM in final) • 100 μL of 10% CHAPS (0.05% in final) • 200 μL of 100 mM DTT (1 mM in final) • 18.94 mL of nanopure water • 10 mL ‘PI’ are prepared per assay: • 200 μL of 1 mg/ml L-alpha-Phosphatidylinositol (Liver Bovine, Avanti Polar Lipids Cat. No. 840042C MW=909.12) prepared in 3% OctylGlucoside (10 μg/ml in final) • 9.8 mL of ‘buffer’ • 10 mL ‘ATP’ are prepared per assay: • 6.7 μL of 3 mM stock of ATP giving a final concentration of 1 μM per well • 10 mL of ‘buffer’ • 2.5 mL of each PI3K construct are prepared per assay in ‘PI’ with the following final concentration: • 10 nM PI3K alfa EMV B1075 • 25 nM beta EMV BV949 • 10 nM delta EMV BV1060 • 150 nM gamma EMV BV950 • 5 μL of ‘PI/PI3K’ are added per well. • 5 μl ‘ATP’ are added per well to start the reaction. • The plates are then incubated at room temperature for 60 minutes (alfa, beta, delta) or 120 minutes (gamma). • The reaction is terminated by the addition of 10 μL Kinase-Glo (Promega Cat. No. #6714). • The assay plates are read after 10 minutes in Synergy 2 reader (BioTek, Vermont USA) with an integration time of 100 milliseconds and sensitivity set to 191. • Output: The High control is around 60'000 counts and the Low control is 30'000 or lower • This luminescence assay gives a useful Z′ ratio between 0.4 and 0.7
Two different constructs, BV 1052 and BV 1075, are used to generate the PI3 Kinase a proteins for compound screening.
(§4) IC50 is determined by a four parameter curve fitting routine that comes along with “excel fit”. […] Alternatively, IC50 values are calculated using idbsXLfit model 204, which is a 4 parameter logistic model.

PI3K delta = biological target: T2, PI3K delta (Homo sapiens, UniProt O00329); assay: PI3K delta kinase assay (Kinase-Glo luminescence); assay type: biochemical
T2 construct: for the full-length p110-d subunit are generated and fused by overlapping PCR; p85(iSH2) fusion partner (see partner chain) (N); His tag (C); made in house; host or cells: baculovirus; Tn5 (Trichoplusia ni) or TiniPro insect cells
Experimental: as §1, §2, §3
PI3Kγ BV-1060 p85(iSH2)-Gly Linker-p110d(Full-Length)-C-Term his Tag
as §4

[1] = tested on: PKB Ser473 phosphorylation in Rat1-myr-HA-p110 beta cells; assay: Reverse protein array assay, PKB Ser473 phosphorylation in Rat1-myr-p110 beta cells; assay type: cell-based; conditions: 0.5 h, pAkt Ser473, 30 minutes incubation, read-out: p-PKB IC50
Experimental: (§5) The Rat1-myr-HA-p110 alpha, beta and delta cells were trypsinized and counted with a CASY TT cell counter (Schärfe System GmbH, Reutlingen Germany). […] The plates were incubated at 37° C. and 5% CO2 under humidified condition for at least 20 h. Compound of formula I working solutions were prepared freshly as serial 8 step dilutions (vol/vol) in DMSO on the day of the experiment. […] The final DMSO concentration was kept constant at 0.2%. cell culture medium containing 0.2% DMSO was used as vehicle treatment control. Post incubation, the cells were treated with the serial compound dilution. 50 μl of the compound medium mixture was added to the wells containing cells and 150 μl DMEM medium and incubated for 30 minutes (37° C., 5% CO2). After 30 minutes of incubation, the medium mixture was quickly removed by aspiration. […] 50 μl of the described lysis buffer mix was added to each well, followed by 10 minutes of incubation on ice.
(§6) The samples were spotted onto ZeptoMARKt PWG protein microarray chips (Zeptosens, Witterswil, Switzerland) with the piezoelectric microdispense-based, non-contact Nano-Plotter 2.1 (GeSiM, Grosserkmannsdorf, Germany). Each sample was spotted at 4 different sample concentrations (d1=100%, d2=75%, d3=50%, d4=25%) by diluting the cell lysate with the corresponding volume of lysis buffer mix. After spotting the ZeptoMARK® protein microarrays, the chips are incubated for 1 hour at 37° C. […] After 20 minutes of blocking the chips are extensively rinsed with deionized water (Milli-Q quality, 18MΩ×cm) and dried in a nitrogen air flow.
(§7) After incubation, the arrays were washed twice with 200 μl CAB1 buffer. […] The fluorescence signal was assessed with exposure times of 1, 3, 5 and 10 seconds, depending on the intensity of the signal. The resulting four images taken per array are stored as 16-bit TIF files.
(§8) The fluorescence images for each array were analyzed with the ZeptoVIEW Pro 2.0 software (Zeptosens, Witterswil, Switzerland) and the relative fluorescence intensity for each signal was calculated.

PI3K beta = biological target: T3, PI3K beta (Homo sapiens, UniProt P42338); assay: PI3K beta kinase assay (Kinase-Glo luminescence); assay type: biochemical
T3 construct: for the full-length p110-b subunit are generated and fused by overlapping PCR; p85(iSH2) fusion partner (see partner chain) (N); His tag (C); made in house; host or cells: baculovirus; Tn5 (Trichoplusia ni) or TiniPro insect cells
Experimental: as §1, §2, §3
PI3Kβ BV-949 p85(iSH2)-Gly Linker-p110b(Full-Length)-C-Term his Tag
as §4

mTOR = biological target: T4, mTOR (Homo sapiens, UniProt P42345); assay: Biochemical assay for m-TOR by TR-FRET; conditions: 8 μM ATP, 400 nM GFP-4EBP1, 0.5 nM mTOR
T4 construct: purchased Invitrogen Corporation (Carlsbad/CA, USA) PV4753
Experimental: Biochemical Assay for m-TOR by TR-FRET.
Assay components are purchased from Invitrogen Corporation (Carlsbad/CA, USA): GFP-4EBP1 (Cat. No. PV4759), Tb3+-α-p4EBP1 [pThr46] Antibody (Cat. No. PV4757), proprietary TR-FRET dilution buffer (Cat. No. PV3574), mTOR protein (Cat. No. PV4753).
Then 5 μL of ATP (8 μM final concentration) and GFP-4EBP1 (400 nM final concentration) with 5 μL mTOR proteins (0.5 nM final concentration) are incubated at rt. The standard reaction buffer for the TR-FRET mTOR assay contained 50 mM HEPES pH 7.5, 10 mM MnCl2, 50 mM NaCl, 1 mM EGTA, 1 mM DTT. Reactions were stopped with 10 μL of a mixture of EDTA containing the Tb3+-α-p4EBP1-[pT46] detection Ab (0.5 nM) in TR-FRET dilution buffer (proprietary to IVG). Plates are read 15 mins later in a Synergy2 reader using an integration time of 0.2 seconds and a delay of 0.1 seconds. […] A standard compound is used as a reference compound and included in all assay plates in the form of 16 dilution points in duplicate.

[2] = tested on: PKB Ser473 phosphorylation in Rat1-myr-HA-p110 delta cells; assay: Reverse protein array assay, PKB Ser473 phosphorylation in Rat1-myr-p110 delta cells; assay type: cell-based; conditions: read-out: p-PKB IC50
Experimental: as §5, §6, §7, §8

[3] = tested on: PKB Ser473 phosphorylation in Rat1-myr-HA-p110 alpha cells; assay: Reverse protein array assay, PKB Ser473 phosphorylation in Rat1-myr-p110 alpha cells; assay type: cell-based; conditions: 0.5 h, pAkt Ser473, 30 minutes compound incubation, read-out: p-PKB IC50
Experimental: as §5, §6, §7, §8

[4] = tested on: S6 Ribosomal Protein phosphorylation Ser235/236 in TSC1 null mouse embryo fibroblast (MEF) cells; assay: Reverse protein array assay, S6 Ribosomal Protein phosphorylation Ser235/236 in TSC1 null MEF cells; assay type: cell-based; conditions: 1 h, pS6 ribosomal protein Ser235/236, 60 minutes incubation, read-out: p-S6 IC50
Experimental: as §5, with “TSC1−/−” for “Rat1-myr-HA-p110 alpha, beta and delta”, “(Schirfe” for “(Schärfe”, “Working” for “Compound of formula I working”, “0.02%.” for “0.2%.”, “0.02%” for “0.2%”, “60” for “30”
The spotting of the chips follows the previous described method.

T4 sequence (P42345 1360-2549 limits assumed): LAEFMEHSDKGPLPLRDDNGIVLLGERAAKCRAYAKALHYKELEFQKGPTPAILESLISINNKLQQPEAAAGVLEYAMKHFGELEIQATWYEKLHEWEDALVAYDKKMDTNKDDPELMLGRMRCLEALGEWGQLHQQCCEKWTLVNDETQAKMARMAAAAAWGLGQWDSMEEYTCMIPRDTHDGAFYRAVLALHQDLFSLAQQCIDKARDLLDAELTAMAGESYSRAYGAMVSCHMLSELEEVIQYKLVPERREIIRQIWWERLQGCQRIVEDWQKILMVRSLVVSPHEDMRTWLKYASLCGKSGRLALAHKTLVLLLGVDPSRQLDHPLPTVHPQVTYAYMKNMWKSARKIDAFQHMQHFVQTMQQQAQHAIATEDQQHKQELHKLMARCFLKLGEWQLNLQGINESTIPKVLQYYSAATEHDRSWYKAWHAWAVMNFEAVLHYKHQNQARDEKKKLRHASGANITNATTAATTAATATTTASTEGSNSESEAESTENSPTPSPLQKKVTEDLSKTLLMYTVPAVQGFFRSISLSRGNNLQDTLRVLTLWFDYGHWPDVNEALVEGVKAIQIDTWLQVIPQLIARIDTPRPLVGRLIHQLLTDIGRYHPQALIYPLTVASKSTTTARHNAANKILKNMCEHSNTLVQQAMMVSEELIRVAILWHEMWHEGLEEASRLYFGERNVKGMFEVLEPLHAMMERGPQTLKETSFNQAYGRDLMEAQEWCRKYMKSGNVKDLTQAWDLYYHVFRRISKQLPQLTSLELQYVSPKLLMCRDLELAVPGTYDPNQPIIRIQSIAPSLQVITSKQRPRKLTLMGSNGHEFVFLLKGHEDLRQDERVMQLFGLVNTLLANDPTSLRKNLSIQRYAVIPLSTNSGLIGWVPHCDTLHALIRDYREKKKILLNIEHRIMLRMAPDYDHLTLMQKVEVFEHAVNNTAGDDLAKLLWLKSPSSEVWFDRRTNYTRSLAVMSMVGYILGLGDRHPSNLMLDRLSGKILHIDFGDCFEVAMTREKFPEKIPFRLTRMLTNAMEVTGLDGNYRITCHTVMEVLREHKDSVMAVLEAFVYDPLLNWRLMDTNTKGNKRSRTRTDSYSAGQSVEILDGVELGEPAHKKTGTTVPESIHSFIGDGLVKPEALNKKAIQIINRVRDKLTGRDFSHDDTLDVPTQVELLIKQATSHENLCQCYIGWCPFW
T1 sequence (P42336 with tags, fused parts or gaps limits assumed): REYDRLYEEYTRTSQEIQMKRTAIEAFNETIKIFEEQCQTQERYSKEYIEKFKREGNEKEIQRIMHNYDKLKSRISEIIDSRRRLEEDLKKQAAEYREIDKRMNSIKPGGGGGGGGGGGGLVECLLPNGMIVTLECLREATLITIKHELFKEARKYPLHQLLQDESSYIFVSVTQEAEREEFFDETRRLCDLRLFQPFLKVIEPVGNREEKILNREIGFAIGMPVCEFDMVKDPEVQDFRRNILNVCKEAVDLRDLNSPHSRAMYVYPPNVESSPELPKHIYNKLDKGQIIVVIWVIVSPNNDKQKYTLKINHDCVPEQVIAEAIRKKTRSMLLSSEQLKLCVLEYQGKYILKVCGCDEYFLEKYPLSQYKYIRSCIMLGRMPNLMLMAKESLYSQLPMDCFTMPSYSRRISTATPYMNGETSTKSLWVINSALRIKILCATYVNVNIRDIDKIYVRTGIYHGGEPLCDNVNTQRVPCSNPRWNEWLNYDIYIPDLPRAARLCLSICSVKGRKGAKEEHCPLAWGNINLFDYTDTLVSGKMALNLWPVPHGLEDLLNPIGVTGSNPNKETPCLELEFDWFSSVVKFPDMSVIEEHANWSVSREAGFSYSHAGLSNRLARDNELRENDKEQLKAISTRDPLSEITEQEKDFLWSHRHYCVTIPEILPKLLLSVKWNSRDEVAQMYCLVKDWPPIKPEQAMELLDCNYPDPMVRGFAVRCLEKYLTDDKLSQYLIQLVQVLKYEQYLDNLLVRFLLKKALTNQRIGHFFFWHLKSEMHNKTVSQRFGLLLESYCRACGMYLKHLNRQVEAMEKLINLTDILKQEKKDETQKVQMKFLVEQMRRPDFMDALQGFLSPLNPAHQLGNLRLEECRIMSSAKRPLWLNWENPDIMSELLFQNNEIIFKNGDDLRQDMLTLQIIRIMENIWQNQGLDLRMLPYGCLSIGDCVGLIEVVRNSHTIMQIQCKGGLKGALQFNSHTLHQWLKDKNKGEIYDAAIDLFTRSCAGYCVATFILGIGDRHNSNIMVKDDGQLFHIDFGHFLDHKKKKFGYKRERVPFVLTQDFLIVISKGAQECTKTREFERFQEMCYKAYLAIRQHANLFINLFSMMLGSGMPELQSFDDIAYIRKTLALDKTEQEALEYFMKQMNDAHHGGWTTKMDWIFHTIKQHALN
T2 sequence (O00329 with tags, fused parts or gaps limits assumed): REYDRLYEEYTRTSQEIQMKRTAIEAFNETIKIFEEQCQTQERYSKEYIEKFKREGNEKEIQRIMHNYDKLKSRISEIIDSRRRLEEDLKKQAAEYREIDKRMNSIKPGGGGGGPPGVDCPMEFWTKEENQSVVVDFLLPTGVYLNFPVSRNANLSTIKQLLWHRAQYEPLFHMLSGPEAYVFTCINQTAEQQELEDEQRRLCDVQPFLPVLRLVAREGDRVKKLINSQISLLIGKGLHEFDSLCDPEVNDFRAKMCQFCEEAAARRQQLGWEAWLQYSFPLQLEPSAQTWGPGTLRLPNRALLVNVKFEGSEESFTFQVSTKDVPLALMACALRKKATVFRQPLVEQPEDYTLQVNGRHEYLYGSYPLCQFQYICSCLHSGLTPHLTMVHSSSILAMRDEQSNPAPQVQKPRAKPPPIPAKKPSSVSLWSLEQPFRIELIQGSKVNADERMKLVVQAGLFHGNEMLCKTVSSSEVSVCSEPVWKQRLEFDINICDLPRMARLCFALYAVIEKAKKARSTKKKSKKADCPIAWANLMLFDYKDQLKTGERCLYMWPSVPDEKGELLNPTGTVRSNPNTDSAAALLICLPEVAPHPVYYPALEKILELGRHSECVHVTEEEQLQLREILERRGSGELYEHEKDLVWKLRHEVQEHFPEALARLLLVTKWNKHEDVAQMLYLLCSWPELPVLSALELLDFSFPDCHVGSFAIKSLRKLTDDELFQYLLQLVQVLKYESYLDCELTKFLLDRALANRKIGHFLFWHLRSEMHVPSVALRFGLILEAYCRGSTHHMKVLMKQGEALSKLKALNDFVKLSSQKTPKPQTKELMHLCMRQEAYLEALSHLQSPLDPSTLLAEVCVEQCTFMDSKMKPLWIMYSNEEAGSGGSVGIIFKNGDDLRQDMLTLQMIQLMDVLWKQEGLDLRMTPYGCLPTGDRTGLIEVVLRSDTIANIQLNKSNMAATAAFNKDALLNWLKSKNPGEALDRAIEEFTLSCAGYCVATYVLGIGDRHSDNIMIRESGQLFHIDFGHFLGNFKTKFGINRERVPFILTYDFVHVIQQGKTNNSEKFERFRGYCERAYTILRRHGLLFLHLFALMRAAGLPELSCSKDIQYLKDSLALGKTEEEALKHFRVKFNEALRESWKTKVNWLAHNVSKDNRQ
T3 sequence (P42338 with tags, fused parts or gaps limits assumed): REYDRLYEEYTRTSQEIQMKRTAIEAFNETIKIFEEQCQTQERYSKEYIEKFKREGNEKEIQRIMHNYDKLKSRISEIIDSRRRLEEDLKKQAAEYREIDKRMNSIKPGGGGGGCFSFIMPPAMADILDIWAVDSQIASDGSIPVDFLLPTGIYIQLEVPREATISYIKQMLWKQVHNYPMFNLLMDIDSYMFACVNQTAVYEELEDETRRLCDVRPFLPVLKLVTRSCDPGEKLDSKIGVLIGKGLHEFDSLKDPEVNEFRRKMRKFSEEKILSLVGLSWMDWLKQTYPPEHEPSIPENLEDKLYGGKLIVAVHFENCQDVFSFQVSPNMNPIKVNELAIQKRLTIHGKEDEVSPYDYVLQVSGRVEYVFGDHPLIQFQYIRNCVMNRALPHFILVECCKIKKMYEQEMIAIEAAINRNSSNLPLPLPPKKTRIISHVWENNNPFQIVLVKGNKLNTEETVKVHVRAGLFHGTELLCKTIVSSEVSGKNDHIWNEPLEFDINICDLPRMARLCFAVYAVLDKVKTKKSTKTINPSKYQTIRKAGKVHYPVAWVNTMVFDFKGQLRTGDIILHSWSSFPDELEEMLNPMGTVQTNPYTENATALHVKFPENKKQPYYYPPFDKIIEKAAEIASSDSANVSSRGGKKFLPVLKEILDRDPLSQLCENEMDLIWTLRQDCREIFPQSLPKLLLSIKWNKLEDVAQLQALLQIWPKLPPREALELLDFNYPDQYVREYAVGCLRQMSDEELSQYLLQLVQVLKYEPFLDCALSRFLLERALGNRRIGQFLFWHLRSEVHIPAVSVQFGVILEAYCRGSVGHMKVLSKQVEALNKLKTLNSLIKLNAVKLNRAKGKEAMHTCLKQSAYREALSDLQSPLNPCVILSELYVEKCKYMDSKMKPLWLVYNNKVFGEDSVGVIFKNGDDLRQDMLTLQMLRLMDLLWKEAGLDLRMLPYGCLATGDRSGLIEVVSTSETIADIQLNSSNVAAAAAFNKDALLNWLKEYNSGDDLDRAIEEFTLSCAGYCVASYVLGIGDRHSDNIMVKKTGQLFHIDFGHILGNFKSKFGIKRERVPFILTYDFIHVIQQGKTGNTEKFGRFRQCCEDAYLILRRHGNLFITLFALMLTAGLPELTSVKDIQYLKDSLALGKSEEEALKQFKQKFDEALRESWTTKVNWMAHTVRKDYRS

IC50 (PI3K alpha) | IC50 (PI3K delta) | IC50 [1] | IC50 (PI3K beta) | IC50 (mTOR) | IC50 [2] | IC50 [3] | SMILES | IC50 [4]
7 nM | < 3 nM | 8 nM | 8 nM | 6 nM | 8 nM | < 5 nM | CNc1ncc(-c2ccc3ncc4c(c3c2)n(-c2cn(C)nc2Cl)c(=O)n4C)cc1COC [Example 248.4, 1-(3-Chloro-1-methyl-1H-pyrazol-4-yl)-8-(5-methoxymethyl-6-methylaminopyridin-3-yl)-3-methyl-1,3-dihydro-imidazo[4,5-c]quinolin-2-one] | –
10 nM | < 3 nM | 25 nM | 23 nM | 15 nM | 25 nM | 9 nM | CNc1ncc(-c2ccc3ncc4c(c3c2)n(-c2cn(C)nc2C)c(=O)n4C)cc1COC [Example 248.3, 1-(1,3-Dimethyl-1H-pyrazol-4-yl)-8-(5-methoxymethyl-6-methylamino-pyridin-3-yl)-3-methyl-1,3-dihydro-imidazo[4,5-c]quinolin-2-one] | –
14 nM | 7 nM | – | 21 nM | 3 nM | – | – | CCn1cc(-n2c(=O)n(C)c3cnc4ccc(-c5cnc(CO)c(NC)c5)cc4c32)c(C)n1 [Example 158.5, 1-(1-Ethyl-3-methyl-1H-pyrazol-4-yl)-8-(6-hydroxymethyl-5-methylamino-pyridin-3-yl)-3-methyl-1,3-dihydro-imidazo[4,5-c]quinolin-2-one] | –
46 nM | 68 nM | – | 404 nM | 105 nM | – | – | Cc1ccc(-c2ccc3ncc4c(c3c2)n(-c2cc(C)nn2C)c(=O)n4C)cn1 [Example 7.1, 1-(2,5-Dimethyl-2H-pyrazol-3-yl)-3-methyl-8-(6-methyl-pyridin-3-yl)-1,3-dihydro-imidazo[4,5-c]quinolin-2-one] | –
– | 262 nM | 110 nM | – | 564 nM | 377 nM | 37 nM | COc1nc2cc(-c3ccc4ncc5c(c4c3)n(-c3cn(C)nc3C)c(=O)n5C)cnc2n1C [Example 71, 1-(1,3-Dimethyl-1H-pyrazol-4-yl)-8-(2-methoxy-3-methyl-3H-imidazo[4,5-b]pyridin-6-yl)-3-methyl-1,3-dihydro-imidazo[4,5-c]quinolin-2-one] | 13 nM
8 nM | 3 nM | – | 22 nM | 15 nM | – | – | CCn1cc(-n2c(=O)n(C)c3cnc4ccc(-c5cnc(NC)c(COC)c5)cc4c32)c(C)n1 [Example 248.2, 1-(1-Ethyl-3-methyl-1H-pyrazol-4-yl)-8-(5-methoxymethyl-6-methylamino-pyridin-3-yl)-3-methyl-1,3-dihydro-imidazo[4,5-c]quinolin-2-one] | –
32 nM | 14 nM | – | 144 nM | 565 nM | – | – | CNc1ncc(-c2ccc3ncc4c(c3c2)n(-c2c(C)nn(C)c2C)c(=O)n4C)cc1COC [Example 248.5, 8-(5-Methoxymethyl-6-methylamino-pyridin-3-yl)-3-methyl-1-(1,3,5-trimethyl-1H-pyrazol-4-yl)-1,3-dihydro-imidazo[4,5-c]quinolin-2-one] | –
21 nM | 29 nM | 92 nM | 61 nM | 462 nM | 71 nM | – | CCn1c(=O)n(C)c2ncc(-c3ccc4ncc5c(c4c3)n(-c3cn(C)nc3C)c(=O)n5C)cc21 [Example 68, 1-(1,3-Dimethyl-1H-pyrazol-4-yl)-8-(1-ethyl-3-methyl-2-oxo-2,3-dihydro-1H-imidazo[4,5-b]pyridin-6-yl)-3-methyl-1,3-dihydro-imidazo[4,5-c]quinolin-2-one] | –
